{"source": "paper PMC5218480", "about": "(PLoS ONE, 2017)", "system": "MV-4-11 cells", "assay": "Gene expression microarray analysis (Affymetrix PrimeView) and GSEA", "format": "cell-based, human", "parameters": "RFU PODN (11730768_x_at) / Fold change /veh PODN (11730768_x_at) / RFU LINC00158 (11744669_a_at) / Fold change /veh LINC00158 (11744669_a_at) / RFU DUSP10 (11751237_a_at) / Fold change /veh DUSP10 (11751237_a_at) / RFU ID3 (11757404_x_at) / Fold change /veh ID3 (11757404_x_at) / RFU PLEKHG5 (11737974_s_at) / Fold change /veh PLEKHG5 (11737974_s_at) / RFU LRRC4B (11730491_at) / Fold change /veh LRRC4B (11730491_at) / RFU GIMAP4 (11747438_a_at) / Fold change /veh GIMAP4 (11747438_a_at) / RFU KRT8 (11758183_x_at) / Fold change /veh KRT8 (11758183_x_at) / RFU CNN1 (11734310_a_at) / Fold change /veh CNN1 (11734310_a_at) / RFU VPS37D (11726825_at) / Fold change /veh VPS37D (11726825_at) / RFU C10orf10 (11716522_x_at) / Fold change /veh C10orf10 (11716522_x_at) / RFU KIR2DL2 /// KIR2DL4 /// KIR2DL5A /// KIR2DL5B /// KIR2DS1 /// KIR2DS2 /// KIR2DS3 /// KIR2DS4 /// KIR3DL3 /// KIR3DL3 /// KIR3DS1 (11738374_at) / Fold change /veh KIR2DL2 /// KIR2DL4 /// KIR2DL5A /// KIR2DL5B /// KIR2DS1 /// KIR2DS2 /// KIR2DS3 /// KIR2DS4 /// KIR3DL3 /// KIR3DL3 /// KIR3DS1 (11738374_at) / RFU C1QL1 (11718748_at) / Fold change /veh C1QL1 (11718748_at) / RFU TMPRSS4 (11747572_a_at) / Fold change /veh TMPRSS4 (11747572_a_at) / RFU HAMP (11756126_x_at) / Fold change /veh HAMP (11756126_x_at) / RFU RNFT2 (11725882_a_at) / Fold change /veh RNFT2 (11725882_a_at) / RFU NR4A2 (11747474_a_at) / Fold change /veh NR4A2 (11747474_a_at) / RFU ABCC12 (11746883_a_at) / Fold change /veh ABCC12 (11746883_a_at) / RFU TMEM136 (11760407_x_at) / Fold change /veh TMEM136 (11760407_x_at) / RFU CLDN22 /// WWC2 (11732394_at) / Fold change /veh CLDN22 /// WWC2 (11732394_at) / RFU HLA-DPB1 (11760878_x_at) / Fold change /veh HLA-DPB1 (11760878_x_at) / RFU SPINT1 (11716480_a_at) / Fold change /veh SPINT1 (11716480_a_at) / RFU GAP43 (11754022_s_at) / Fold change /veh GAP43 (11754022_s_at) / RFU A4GNT (11735810_at) / Fold change /veh A4GNT (11735810_at) / RFU PRB3 (11715151_x_at) / Fold change /veh PRB3 (11715151_x_at) / RFU TUBB4B (11761932_at) / Fold change /veh TUBB4B (11761932_at) / RFU CAPN14 (11732068_a_at) / Fold change /veh CAPN14 (11732068_a_at) / RFU TMCC2 (11721928_a_at) / Fold change /veh TMCC2 (11721928_a_at) / RFU IRGQ (11745062_a_at) / Fold change /veh IRGQ (11745062_a_at) / RFU FAM174B (11720279_a_at) / Fold change /veh FAM174B (11720279_a_at) / RFU TMPRSS4 (11748680_a_at) / Fold change /veh TMPRSS4 (11748680_a_at) / RFU FAM212B (11763350_a_at) / Fold change /veh FAM212B (11763350_a_at) / RFU PLEKHG5 (11743358_a_at) / Fold change /veh PLEKHG5 (11743358_a_at) / RFU ZSCAN30 (11745921_a_at) / Fold change /veh ZSCAN30 (11745921_a_at) / RFU CMKLR1 (11741424_a_at) / Fold change /veh CMKLR1 (11741424_a_at) / RFU LOC101060620 /// MAPK8IP1 (11723275_at) / Fold change /veh LOC101060620 /// MAPK8IP1 (11723275_at) / RFU SPTSSB (11747773_x_at) / Fold change /veh SPTSSB (11747773_x_at) / RFU PRSS12 (11739890_at) / Fold change /veh PRSS12 (11739890_at) / RFU BIN1 (11741810_x_at) / Fold change /veh BIN1 (11741810_x_at) / RFU WNT11 (11732464_a_at) / Fold change /veh WNT11 (11732464_a_at) / RFU C10orf10 (11716521_a_at) / Fold change /veh C10orf10 (11716521_a_at) / RFU C5orf56 (11738089_at) / Fold change /veh C5orf56 (11738089_at) / RFU CYB561 (11721691_x_at) / Fold change /veh CYB561 (11721691_x_at) / RFU ANKRD19P (11752326_a_at) / Fold change /veh ANKRD19P (11752326_a_at) / RFU OR2T12 /// OR2T33 /// OR2T8 (11738714_s_at) / Fold change /veh OR2T12 /// OR2T33 /// OR2T8 (11738714_s_at) / RFU VCAN (11748164_a_at) / Fold change /veh VCAN (11748164_a_at) / RFU JSRP1 (11732532_at) / Fold change /veh JSRP1 (11732532_at) / RFU KRTAP10-11 (11738290_x_at) / Fold change /veh KRTAP10-11 (11738290_x_at) / RFU MYO3A (11730013_a_at) / Fold change /veh MYO3A (11730013_a_at) / RFU EBF3 (11725865_a_at) / Fold change /veh EBF3 (11725865_a_at) / RFU CAMK2N1 (11719241_x_at) / Fold change /veh CAMK2N1 (11719241_x_at) / RFU C5orf56 (11738088_a_at) / Fold change /veh C5orf56 (11738088_a_at) / RFU OLFML3 (11715873_a_at) / Fold change /veh OLFML3 (11715873_a_at) / RFU LOC100653217 /// NTM (11731650_a_at) / Fold change /veh LOC100653217 /// NTM (11731650_a_at) / RFU MAPK11 (11762145_a_at) / Fold change /veh MAPK11 (11762145_a_at) / RFU FIZ1 (11724087_x_at) / Fold change /veh FIZ1 (11724087_x_at) / RFU OASL (11726364_x_at) / Fold change /veh OASL (11726364_x_at) / RFU SOX15 (11748057_x_at) / Fold change /veh SOX15 (11748057_x_at) / RFU CD79A (11719716_a_at) / Fold change /veh CD79A (11719716_a_at) / RFU HIST1H1D (11736915_at) / Fold change /veh HIST1H1D (11736915_at) / RFU CASKIN2 (11723855_a_at) / Fold change /veh CASKIN2 (11723855_a_at) / RFU LOC730098 (11760151_x_at) / Fold change /veh LOC730098 (11760151_x_at) / RFU OR4N2 (11742367_at) / Fold change /veh OR4N2 (11742367_at) / RFU PRRT2 (11749266_a_at) / Fold change /veh PRRT2 (11749266_a_at) / RFU SNX32 (11753110_a_at) / Fold change /veh SNX32 (11753110_a_at) / RFU CDHR5 (11726645_a_at) / Fold change /veh CDHR5 (11726645_a_at) / RFU RCAN1 (11760418_a_at) / Fold change /veh RCAN1 (11760418_a_at) / RFU FAM167A (11723789_a_at) / Fold change /veh FAM167A (11723789_a_at) / RFU FAM26E (11764081_at) / Fold change /veh FAM26E (11764081_at) / RFU ISYNA1 (11749810_s_at) / Fold change /veh ISYNA1 (11749810_s_at) / RFU ACY1 (11761880_at) / Fold change /veh ACY1 (11761880_at) / RFU 11764098_at / Fold change /veh 11764098_at / RFU SAMD14 (11745864_x_at) / Fold change /veh SAMD14 (11745864_x_at) / RFU NPB (11741838_a_at) / Fold change /veh NPB (11741838_a_at) / RFU TMPRSS6 (11731388_a_at) / Fold change /veh TMPRSS6 (11731388_a_at) / RFU KRTAP10-2 (11738614_at) / Fold change /veh KRTAP10-2 (11738614_at) / RFU ARHGAP8 /// PRR5-ARHGAP8 (11727945_x_at) / Fold change /veh ARHGAP8 /// PRR5-ARHGAP8 (11727945_x_at) / RFU KRTAP5-7 /// NADSYN1 (11734609_at) / Fold change /veh KRTAP5-7 /// NADSYN1 (11734609_at) / RFU RASL12 (11751679_a_at) / Fold change /veh RASL12 (11751679_a_at) / RFU CDKN2B (11736163_a_at) / Fold change /veh CDKN2B (11736163_a_at) / RFU PRF1 (11729649_at) / Fold change /veh PRF1 (11729649_at) / RFU, ZNF638 /// ZNF638-IT1 / Fold change vs veh, ZNF638 /// ZNF638-IT1 / RFU, PANK3 / Fold change vs veh, PANK3 / RFU, SH3YL1 / Fold change vs veh, SH3YL1 / RFU, ZEB2 / Fold change vs veh, ZEB2 / RFU, NRIP1 / Fold change vs veh, NRIP1 / RFU, PTTG1IP / Fold change vs veh, PTTG1IP / RFU, CAPN2 / Fold change vs veh, CAPN2 / RFU, MED14 / Fold change vs veh, MED14 / RFU, SNORA58 / Fold change vs veh, SNORA58 / RFU, C1orf63 / Fold change vs veh, C1orf63 / RFU, LRRFIP1 / Fold change vs veh, LRRFIP1 / RFU, NDUFAF7 / Fold change vs veh, NDUFAF7 / RFU, SLC12A2 / Fold change vs veh, SLC12A2 / RFU, IBTK / Fold change vs veh, IBTK / RFU, ESF1 / Fold change vs veh, ESF1 / Fold change vs veh, TMEM50B / RFU, TAOK1 / Fold change vs veh, TAOK1 / RFU, ACBD3 / Fold change vs veh, ACBD3 / RFU, TMA16 / Fold change vs veh, TMA16 / RFU, RWDD3 / Fold change vs veh, RWDD3 / RFU, BCAT1 / Fold change vs veh, BCAT1 / RFU, EDEM3 / Fold change vs veh, EDEM3 / RFU, TMEM33 / Fold change vs veh, TMEM33 / RFU, WDR75 / Fold change vs veh, WDR75 / RFU, AHCTF1 / Fold change vs veh, AHCTF1 / RFU, TFRC / Fold change vs veh, TFRC / RFU, ZDHHC17 / Fold change vs veh, ZDHHC17 / RFU, NOM1 / Fold change vs veh, NOM1 / RFU, ARL8B / Fold change vs veh, ARL8B / RFU, ZBTB11 / Fold change vs veh, ZBTB11 / RFU, TAMM41 / Fold change vs veh, TAMM41 / RFU, KIAA1704 /// LOC100996395 / Fold change vs veh, KIAA1704 /// LOC100996395 / RFU, ING1 / Fold change vs veh, ING1 / RFU, TRMT61B / Fold change vs veh, TRMT61B / RFU, FUBP3 / Fold change vs veh, FUBP3 / RFU, TP53 / Fold change vs veh, TP53 / RFU, TNKS2 / Fold change vs veh, TNKS2 / RFU, ZFP14 / Fold change vs veh, ZFP14 / RFU, ACTR2 / Fold change vs veh, ACTR2 / RFU, PPP3R1 / Fold change vs veh, PPP3R1 / RFU, PIK3R1 / Fold change vs veh, PIK3R1 / RFU, HNRNPA1 / Fold change vs veh, HNRNPA1 / RFU, RNF170 / Fold change vs veh, RNF170 / RFU, ZNF28 / Fold change vs veh, ZNF28 / RFU, RNGTT / Fold change vs veh, RNGTT / RFU, OGT / Fold change vs veh, OGT / RFU, BRD1 / Fold change vs veh, BRD1 / RFU, MARS / Fold change vs veh, MARS / RFU, ZNF655 / Fold change vs veh, ZNF655 / RFU, FAHD1 / Fold change vs veh, FAHD1 / RFU, BDP1 / Fold change vs veh, BDP1 / RFU, LRRCC1 / Fold change vs veh, LRRCC1 / RFU, ARID1A / Fold change vs veh, ARID1A / RFU, ZNF146 / Fold change vs veh, ZNF146 / RFU, ZNF330 / Fold change vs veh, ZNF330 / RFU, GPN3 / Fold change vs veh, GPN3 / RFU, C9orf123 / Fold change vs veh, C9orf123 / RFU, N4BP2L2 / Fold change vs veh, N4BP2L2 / RFU, ARFIP1 / Fold change vs veh, ARFIP1 / RFU, FAM179B / Fold change vs veh, FAM179B / RFU, BCL10 / Fold change vs veh, BCL10 / RFU, UHRF1BP1L / Fold change vs veh, UHRF1BP1L / RFU, BET1 / Fold change vs veh, BET1 / RFU, CNOT2 / Fold change vs veh, CNOT2 / RFU, ZNF268 / Fold change vs veh, ZNF268 / Fold change vs veh, ZNF507 / RFU, DGCR2 / Fold change vs veh, DGCR2 / RFU, WDSUB1 / Fold change vs veh, WDSUB1 / Fold change vs veh, HSP90B1 /// MIR3652 / RFU, ADSS / Fold change vs veh, ADSS / RFU, GK / Fold change vs veh, GK / RFU, ZNF148 / Fold change vs veh, ZNF148 / RFU, TAF9 / Fold change vs veh, TAF9 / RFU, SLC1A5 / Fold change vs veh, SLC1A5 / RFU, SLMO2 / Fold change vs veh, SLMO2 / RFU, ABCC4 / Fold change vs veh, ABCC4 / RFU, LOC101060439 /// RAP1B / Fold change vs veh, LOC101060439 /// RAP1B / RFU, RFX7 / Fold change vs veh, RFX7 / RFU, GTPBP10 / Fold change vs veh, GTPBP10 / RFU, CNEP1R1 / Fold change vs veh, CNEP1R1 / RFU, BIVM-ERCC5 /// ERCC5 / Fold change vs veh, BIVM-ERCC5 /// ERCC5 / RFU, ILF3 / Fold change vs veh, ILF3 / RFU 11762660_at / Fold change /veh 11762660_at / RFU VCAN (11757783_s_at) / Fold change /veh VCAN (11757783_s_at) / RFU DDX43 (11728927_at) / Fold change /veh DDX43 (11728927_at) / RFU KRT8 (11758188_x_at) / Fold change /veh KRT8 (11758188_x_at) / RFU NKD1 (11759106_at) / Fold change /veh NKD1 (11759106_at) / RFU SRD5A1 (11742802_a_at) / Fold change /veh SRD5A1 (11742802_a_at) / RFU TPSAB1 /// TPSB2 (11721975_s_at) / Fold change /veh TPSAB1 /// TPSB2 (11721975_s_at) / RFU GSTM3 (11746129_a_at) / Fold change /veh GSTM3 (11746129_a_at) / RFU IL23R (11737362_x_at) / Fold change /veh IL23R (11737362_x_at) / RFU TMEM51 (11727254_a_at) / Fold change /veh TMEM51 (11727254_a_at) / RFU PIWIL2 (11732686_x_at) / Fold change /veh PIWIL2 (11732686_x_at) / RFU ORM1 (11744905_x_at) / Fold change /veh ORM1 (11744905_x_at) / RFU CCDC152 (11743942_at) / Fold change /veh CCDC152 (11743942_at) / RFU ECM1 (11717891_a_at) / Fold change /veh ECM1 (11717891_a_at) / RFU IL23R (11748794_a_at) / Fold change /veh IL23R (11748794_a_at) / RFU TNFAIP8L3 (11732012_x_at) / Fold change /veh TNFAIP8L3 (11732012_x_at) / RFU MBOAT4 (11741988_at) / Fold change /veh MBOAT4 (11741988_at) / RFU 11764193_at / Fold change /veh 11764193_at / RFU TMEM53 (11763286_at) / Fold change /veh TMEM53 (11763286_at) / RFU MAGEB2 (11727129_at) / Fold change /veh MAGEB2 (11727129_at) / RFU TMEM200A (11744735_a_at) / Fold change /veh TMEM200A (11744735_a_at) / RFU CCDC152 (11751479_a_at) / Fold change /veh CCDC152 (11751479_a_at) / RFU FAM211A (11726209_a_at) / Fold change /veh FAM211A (11726209_a_at) / RFU RGS16 (11746705_a_at) / Fold change /veh RGS16 (11746705_a_at) / RFU VCAN (11755009_s_at) / Fold change /veh VCAN (11755009_s_at) / RFU RHOB (11743442_s_at) / Fold change /veh RHOB (11743442_s_at) / RFU RGS16 (11720943_a_at) / Fold change /veh RGS16 (11720943_a_at) / RFU RGS16 (11720944_at) / Fold change /veh RGS16 (11720944_at) / RFU, VPS4B / Fold change vs veh, VPS4B / RFU, CREB1 / Fold change vs veh, CREB1 / RFU, DNAJC13 / Fold change vs veh, DNAJC13 / RFU, GNAQ / Fold change vs veh, GNAQ / RFU, CDK5R1 / Fold change vs veh, CDK5R1 / RFU, ZRANB3 / Fold change vs veh, ZRANB3 / RFU, CUL4A / Fold change vs veh, CUL4A / RFU, CCNY / Fold change vs veh, CCNY / RFU, UFL1 / Fold change vs veh, UFL1 / RFU, COG3 / Fold change vs veh, COG3 / RFU, DIAPH2 / Fold change vs veh, DIAPH2 / RFU, SKA2 / Fold change vs veh, SKA2 / RFU, AFF3 / Fold change vs veh, AFF3 / RFU, LMF1 / Fold change vs veh, LMF1 / RFU, IPO11 / Fold change vs veh, IPO11 / RFU, DFFB / Fold change vs veh, DFFB / RFU, FOXP1 / Fold change vs veh, FOXP1 / RFU, CARD8 / Fold change vs veh, CARD8 / RFU, STRN3 / Fold change vs veh, STRN3 / RFU, ADK / Fold change vs veh, ADK / RFU, RASSF2 / Fold change vs veh, RASSF2 / RFU, WIPF1 / Fold change vs veh, WIPF1 / RFU, LARP1B / Fold change vs veh, LARP1B / RFU, RASA1 / Fold change vs veh, RASA1 / RFU, RB1 / Fold change vs veh, RB1 / RFU, PPFIA1 / Fold change vs veh, PPFIA1 / RFU, MAT2A / Fold change vs veh, MAT2A / RFU, CCT5 / Fold change vs veh, CCT5 / RFU, WDR92 / Fold change vs veh, WDR92 / RFU, CUX1 / Fold change vs veh, CUX1 / RFU, TTC7A / Fold change vs veh, TTC7A / RFU, TMEM135 / Fold change vs veh, TMEM135 / RFU, DEPTOR / Fold change vs veh, DEPTOR / RFU, CPM / Fold change vs veh, CPM / RFU, DNAJB6 / Fold change vs veh, DNAJB6 / RFU, CACNA2D3 / Fold change vs veh, CACNA2D3 / RFU, DTX4 / Fold change vs veh, DTX4 / RFU, TFCP2 / Fold change vs veh, TFCP2 / RFU, GMCL1 /// GMCL1P1 / Fold change vs veh, GMCL1 /// GMCL1P1 / RFU, AEBP2 / Fold change vs veh, AEBP2 / RFU, SNHG1 /// SNORD22 /// SNORD25 /// SNORD26 /// SNORD27 /// SNORD28 /// SNORD29 /// SNORD31 / Fold change vs veh, SNHG1 /// SNORD22 /// SNORD25 /// SNORD26 /// SNORD27 /// SNORD28 /// SNORD29 /// SNORD31 / Fold change (Aza/veh), C12orf56 (ProbeSet 11735607_a_at) / Fold change (ACY-1035/veh), C12orf56 (ProbeSet 11735607_a_at) / Fold change (Aza/veh), FGFR1OP (ProbeSet 11751329_s_at) / Fold change (ACY-1035/veh), FGFR1OP (ProbeSet 11751329_s_at) / Fold change (Aza/veh), VPS36 (ProbeSet 11739960_a_at) / Fold change (ACY-1035/veh), VPS36 (ProbeSet 11739960_a_at) / RFU SYPL1 (11715823_x_at) / Fold change /veh SYPL1 (11715823_x_at) / RFU IGFBP7 (11715501_s_at) / Fold change /veh IGFBP7 (11715501_s_at) / RFU REEP3 (11722064_at) / Fold change /veh REEP3 (11722064_at) / RFU IGLL1 (11728026_x_at) / Fold change /veh IGLL1 (11728026_x_at): dose or concentration left out as unconfirmed", "details": "ProbeSet 11750457_a_at; LIST B", "data": [{"smiles": "Nc1ncn([C@@H]2O[C@H](CO)[C@@H](O)[C@H]2O)c(=O)n1", "note": "[azacitidine]", "values": [{"measurement": "RFU, GTPBP10", "value": 30.84, "unit": "RFU"}]}]}
